In paper PMC4319893, “Targeting Protein-Protein Interactions with Trimeric Ligands: High Affinity Inhibitors of the MAGUK Protein Family” (PLoS ONE, 2015):

How the values were obtained:
[1] = biological target: T1, FL PSD-95 wild-type (Homo sapiens, UniProt P78352); experiment: Stopped-flow spectrometry binding kinetics, FL PSD-95 wild-type; details: 50 mM potassium phosphate pH 7.5, 10°C
T1 construct: PSD-95 FL: 61-end; made in house; host or cells: E. coli (pET32m3C vector; construct donated by M. Zhang)
Method: (§1) Kinetic experiments using stopped-flow were carried out under the conditions used previously,[37, 38] namely in 50 mM potassium phosphate, pH 7.5 at 10°C. The change in fluorescence upon binding was monitored with a 330 nm band-pass filter following excitation at 280 nm. […] Regarding the fluorophores and the observed changes in fluorescence, several events contribute to the observed signal. […] This could be either through FRET or by absorbing excitation light. Both fluorophores are also themselves excited at 280 nm (less) and 330 nm (more) and their intrinsic fluorescence may change on binding to the proteins.
(§2) This observed rate constant might be the average of the two k obs values observed upon excitation at 280 nm/emission at 330 nm.

[2] = biological target: T2, PSD-95 PDZ1-2-3 (Homo sapiens, UniProt P78352); experiment: Fluorescence polarization (FP) binding assay, PSD-95 PDZ1-2-3
T2 construct: 7xHis; made in house; host or cells: E. coli BL21(DE3)pLysS
Method: (§3) The monomeric FP assay was conducted as previously described except that the proteins were diluted in 50 mM TRIS, 100 mM NaCl, 1 mM ethylenediaminetetraacetate (EDTA), 1 mM DTT.[34] The monomeric probe was only used when monomeric binding to PSD95 PDZ1-2 and PSD95 PDZ1-2-3 was evaluated, whereas 18 was used as probe for evaluating the binding of the dimeric and trimeric ligands. […] In all of the experiments a blank (buffer) and a reference sample (0.5 nM probe in buffer) were used. A total of 30 μl was pipetted into the wells of a 384 flat black bottom well plate. The FP was measured on a Tecan Safire 2 microplate reader (Tecan Group LTD., Männedorf, Germany). The absorption/emission wavelengths were set to 635/670 nm, corresponding to the Cy5 spectra. The obtained IC50 values were converted to K i values using the equations described by Nikolovska-Coleska et al.[35] […] Consequently, the Ki-value will become negative when the difference between the IC50-value and the Kd is too great.[35, 36]

[3] = biological target: T3, FL PSD-95 (I100W) (Homo sapiens, UniProt P78352, I100W); experiment: Stopped-flow spectrometry binding kinetics, FL PSD-95 I100W; details: 50 mM potassium phosphate pH 7.5, 10°C
T3 construct: PSD-95 FL: 61-end; made in house; host or cells: E. coli (pET32m3C vector; QuickChange mutagenesis)
Method: as §1, §2

[4] = biological target: T4, FL PSD-95 (I195W) (Homo sapiens, UniProt P78352, I195W); experiment: Stopped-flow spectrometry binding kinetics, FL PSD-95 I195W; details: 50 mM potassium phosphate pH 7.5, 10°C
T4 construct: PSD-95 FL: 61-end; made in house; host or cells: E. coli (pET32m3C vector; QuickChange mutagenesis)
Method: as §1, §2

[5] = biological target: PSD-95 PDZ1-2 (Homo sapiens, UniProt P78352); details: FP
Method: as §3

[6] = system: single PDZ3 domain; set-up: method as in PMID 21653701; details: observed previously; cited from earlier work

Substance | kon app, PSD-95 wild-type [1] [µM⁻¹ s⁻¹] | fold lower affinity compared to trimeric ligand 17, PDZ1-2-3 [2] [fold] | kon app, PSD-95 FL I100W [3] [µM⁻¹ s⁻¹] | kon app, PSD-95 FL I195W [4] [µM⁻¹ s⁻¹] | fold lower affinity compared to trimeric ligand 17, PDZ1-2 [5] [fold] | observed rate constant dansyl-1/PDZ3 [6] [s⁻¹]
YKQTSV [Compound 1] | 6.0 ± 0.1 | > 1000 | 6.3 ± 0.19 | 6.3 ± 0.13 | > 1000 | –
dansyl-1: N-terminally dansylated CRIPT hexapeptide YKQTSV | – | – | – | – | – | 1.6
